# Experimental data taken from patent publication US20190216761A1, “COMPOSITIONS COMPRISING 15-HEPE AND METHODS OF USING THE SAME” (Afimmune Limited, priority 2015, published 2019).
# Changes are numbered by the printed parent chain. Marks after values point to notes of the source that are not given here.
# Experiments:
# rPPARδ [1] = test: PPAR agonist reporter assay (Gal4 hybrid receptor, luciferase); assay type: cell-based, rat
# Protocol: (§1) This study utilized proprietary reporter cells expressing a hybrid receptor comprising the N-terminal Gal4 DNA binding domain fused to the ligand binding domain of the specific human nuclear receptor (hPPARα, hPPARδ, and hPPARγ) and rat nuclear receptor (rPPARα, rPPARδ, and rPPARγ). The reporter vectors used in this Example comprise the firefly luciferase gene functionally linked to the Gal4 upstream activation sequence.
# (§2) Nuclear Receptor assay was performed by dispensing 100 μL of a suspension of Reporter Cells in Cell Recovery Medium (CRM) containing 10% charcoal stripped FBS into each well of a white 96-well plate. Test compounds were diluted using compound screening medium (CSM) containing 10% charcoal stripped FBS to generate “2×-concentration” treatment media. Immediately after this dilution step, 100 μL of each diluted 2×-concentration treatment medium was dispensed (in triplicate) into the Reporter Cell-containing assay wells.
# (§3) After incubation at 37° C. for 24 hours, the treatment media was discarded. 100 μL of Luciferase Detection Reagent substrate was added to each well and RLUs were quantified from each well to determine nuclear receptor activities.
# rPPARα Reporter Cells = test: Live cell multiplex assay; assay type: cell-based
# Protocol: as §1
# (§4) Nuclear Receptor assay was performed by suspending Reporter Cells in CRM containing 10% charcoal stripped FBS. 2×-EC80 concentrations of the appropriate reference agonist were then added to the Reporter Cell suspension, and 100 μL of the mixture dispensed into wells of a white 96-well plate. Test compounds were diluted using compound screening medium (CSM) containing 10% charcoal stripped FBS to generate “2×-concentration” treatment media. Immediately after this dilution step, 100 μL of each diluted 2×-concentration treatment medium was dispensed (in triplicate) into the Reporter Cell-containing assay wells.
# (§5) After incubation at 37° C. for 24 hours, the treatment media was discarded. Each well was rinsed once with LCM Buffer; LCM substrate was then added. After incubation for 30 minutes at 37° C., fluorescence was measured to determine the relative number of live cells per assay well. LCM substrate was then discarded and 100 μL of Luciferase Detection Reagent substrate was added to each well. RLUs were quantified from each well to determine nuclear receptor activities.
# rPPARδ Reporter Cells = test: Live cell multiplex assay; assay type: cell-based
# Protocol: as §1, §4, §5
# hPPARγ Reporter Cells = test: Live cell multiplex assay; assay type: cell-based
# Protocol: as §1, §4, §5
# rPPARγ Reporter Cells = test: Live cell multiplex assay; assay type: cell-based
# Protocol: as §1, §4, §5
# rPPARγ = molecular target: T1, rPPARγ (Rattus norvegicus, UniProt O88275); test: PPAR agonist reporter assay (Gal4 hybrid receptor, luciferase); assay type: cell-based
# T1 construct: expressed in transfected cells
# T1 sequence (O88275 238-503 limits assumed): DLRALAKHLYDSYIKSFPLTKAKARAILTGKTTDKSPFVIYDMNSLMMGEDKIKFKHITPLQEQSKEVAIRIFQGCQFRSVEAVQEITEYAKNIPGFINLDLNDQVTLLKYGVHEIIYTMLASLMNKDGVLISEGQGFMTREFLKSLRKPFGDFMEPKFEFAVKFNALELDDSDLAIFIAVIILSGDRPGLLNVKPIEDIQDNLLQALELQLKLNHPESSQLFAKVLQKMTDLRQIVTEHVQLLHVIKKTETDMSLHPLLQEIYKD
# Protocol: as §1, §2, §3
# hPPARγ = molecular target: T2, hPPARγ (Homo sapiens, UniProt P37231); test: as above; assay type: cell-based
# T2 construct: expressed in transfected cells
# T2 sequence (P37231 238-503 limits assumed): T1 sequence (O88275 238-503 limits assumed) with N93S, I98V, V226L, H245Q
# Protocol: as §1, §2, §3
# rPPARδ [2] = test: PPAR antagonist reporter assay (reference agonist at EC80); assay type: cell-based, rat
# Protocol: as §1, §4, §5
# [3] = at medium to higher doses in the dose response curve
smiles,measurement,setting,value
"CC/C=C\C[C@H](O)/C=C/C=C\C/C=C\C/C=C\CCCC(=O)OCC [15-HEPE-EE, 15-HEPE ethyl ester]",Fold-Activation (vs. 0.10% DMSO) rPPAR-δ,rPPARδ [1]; 137 nM,1.3 fold
same,Fold-Activation (vs. 0.10% DMSO) rPPAR-δ,rPPARδ [1]; 412 nM,1.5 fold
same,Fold-Activation (vs. 0.10% DMSO) rPPAR-δ,"rPPARδ [1]; 1,235 nM",1.6 fold
same,Fold-Activation (vs. 0.10% DMSO) rPPAR-δ,"rPPARδ [1]; 3,704 nM",1.8 fold
same,Fold-Activation (vs. 0.10% DMSO) rPPAR-δ,"rPPARδ [1]; 11,111 nM",2.4* fold
same,Fold-Activation (vs. 0.10% DMSO) rPPAR-δ,"rPPARδ [1]; 33,333 nM",2.7* fold
same,Fold-Activation (vs. 0.10% DMSO) rPPAR-δ,"rPPARδ [1]; 100,000 nM",7.2* fold
same,Fold-Activation (vs. 0.10% DMSO) rPPAR-δ,"rPPARδ [1]; 300,000 nM",1.9 fold
same,agonism activity against rat PPARδ (in words),rPPARδ [1]; [3],mild to moderate agonism activity
same,"% Live cells vs. 0.10% DMSO, rPPAR-α",rPPARα Reporter Cells; 137 nM,89%
same,"% Live cells vs. 0.10% DMSO, rPPAR-α",rPPARα Reporter Cells; 412 nM,98%
same,"% Live cells vs. 0.10% DMSO, rPPAR-α","rPPARα Reporter Cells; 1,235 nM",97%
same,"% Live cells vs. 0.10% DMSO, rPPAR-α","rPPARα Reporter Cells; 3,704 nM",99%
same,"% Live cells vs. 0.10% DMSO, rPPAR-α","rPPARα Reporter Cells; 11,111 nM",99%
same,"% Live cells vs. 0.10% DMSO, rPPAR-α","rPPARα Reporter Cells; 33,333 nM",98%
same,"% Live cells vs. 0.10% DMSO, rPPAR-α","rPPARα Reporter Cells; 100,000 nM",76%
same,"% Live cells vs. 0.10% DMSO, rPPAR-α","rPPARα Reporter Cells; 300,000 nM",3.1%
same,"% Live cells vs. 0.10% DMSO, rPPAR-δ",rPPARδ Reporter Cells; 137 nM,99%
same,"% Live cells vs. 0.10% DMSO, rPPAR-δ",rPPARδ Reporter Cells; 412 nM,97%
same,"% Live cells vs. 0.10% DMSO, rPPAR-δ","rPPARδ Reporter Cells; 1,235 nM",98%
same,"% Live cells vs. 0.10% DMSO, rPPAR-δ","rPPARδ Reporter Cells; 3,704 nM",99%
same,"% Live cells vs. 0.10% DMSO, rPPAR-δ","rPPARδ Reporter Cells; 11,111 nM",100%
same,"% Live cells vs. 0.10% DMSO, rPPAR-δ","rPPARδ Reporter Cells; 33,333 nM",100%
same,"% Live cells vs. 0.10% DMSO, rPPAR-δ","rPPARδ Reporter Cells; 100,000 nM",99%
same,"% Live cells vs. 0.10% DMSO, rPPAR-δ","rPPARδ Reporter Cells; 300,000 nM",5.0%
same,"% Live cells vs. 0.10% DMSO, hPPAR-γ",hPPARγ Reporter Cells; 137 nM,86%
same,"% Live cells vs. 0.10% DMSO, hPPAR-γ",hPPARγ Reporter Cells; 412 nM,99%
same,"% Live cells vs. 0.10% DMSO, hPPAR-γ","hPPARγ Reporter Cells; 1,235 nM",101%
same,"% Live cells vs. 0.10% DMSO, hPPAR-γ","hPPARγ Reporter Cells; 3,704 nM",101%
same,"% Live cells vs. 0.10% DMSO, hPPAR-γ","hPPARγ Reporter Cells; 11,111 nM",100%
same,"% Live cells vs. 0.10% DMSO, hPPAR-γ","hPPARγ Reporter Cells; 33,333 nM",99%
same,"% Live cells vs. 0.10% DMSO, hPPAR-γ","hPPARγ Reporter Cells; 100,000 nM",91%
same,"% Live cells vs. 0.10% DMSO, hPPAR-γ","hPPARγ Reporter Cells; 300,000 nM",4.9%
same,"% Live cells vs. 0.10% DMSO, rPPAR-γ",rPPARγ Reporter Cells; 137 nM,98%
same,"% Live cells vs. 0.10% DMSO, rPPAR-γ",rPPARγ Reporter Cells; 412 nM,101%
same,"% Live cells vs. 0.10% DMSO, rPPAR-γ","rPPARγ Reporter Cells; 1,235 nM",101%
same,"% Live cells vs. 0.10% DMSO, rPPAR-γ","rPPARγ Reporter Cells; 3,704 nM",100%
same,"% Live cells vs. 0.10% DMSO, rPPAR-γ","rPPARγ Reporter Cells; 11,111 nM",101%
same,"% Live cells vs. 0.10% DMSO, rPPAR-γ","rPPARγ Reporter Cells; 33,333 nM",101%
same,"% Live cells vs. 0.10% DMSO, rPPAR-γ","rPPARγ Reporter Cells; 100,000 nM",99%
same,"% Live cells vs. 0.10% DMSO, rPPAR-γ","rPPARγ Reporter Cells; 300,000 nM",91%
same,Fold-Activation (vs. 0.10% DMSO) rPPAR-γ,rPPARγ; 137 nM,1.2 fold
same,Fold-Activation (vs. 0.10% DMSO) rPPAR-γ,rPPARγ; 412 nM,1.2 fold
same,Fold-Activation (vs. 0.10% DMSO) rPPAR-γ,"rPPARγ; 1,235 nM",1.4 fold
same,Fold-Activation (vs. 0.10% DMSO) rPPAR-γ,"rPPARγ; 3,704 nM",1.4 fold
same,Fold-Activation (vs. 0.10% DMSO) rPPAR-γ,"rPPARγ; 11,111 nM",1.8 fold
same,Fold-Activation (vs. 0.10% DMSO) rPPAR-γ,"rPPARγ; 33,333 nM",3.5* fold
same,Fold-Activation (vs. 0.10% DMSO) rPPAR-γ,"rPPARγ; 100,000 nM",10* fold
same,Fold-Activation (vs. 0.10% DMSO) rPPAR-γ,"rPPARγ; 300,000 nM",14* fold
same,agonism activity against rat PPARγ (in words),rPPARγ; [3],mild to moderate agonism activity
same,Fold-Activation (vs. 0.10% DMSO) hPPAR-γ,hPPARγ; 137 nM,1.0 fold
same,Fold-Activation (vs. 0.10% DMSO) hPPAR-γ,hPPARγ; 412 nM,1.1 fold
same,Fold-Activation (vs. 0.10% DMSO) hPPAR-γ,"hPPARγ; 1,235 nM",1.3 fold
same,Fold-Activation (vs. 0.10% DMSO) hPPAR-γ,"hPPARγ; 3,704 nM",1.5 fold
same,Fold-Activation (vs. 0.10% DMSO) hPPAR-γ,"hPPARγ; 11,111 nM",2.1* fold
same,Fold-Activation (vs. 0.10% DMSO) hPPAR-γ,"hPPARγ; 33,333 nM",3.6* fold
same,Fold-Activation (vs. 0.10% DMSO) hPPAR-γ,"hPPARγ; 100,000 nM",6.1* fold
same,Fold-Activation (vs. 0.10% DMSO) hPPAR-γ,"hPPARγ; 300,000 nM",0.027 fold
same,agonism activity against human PPARγ (in words),hPPARγ; at low to higher doses in the dose response curve,moderate agonism activity
same,"% Inhibition of agonist-stimulated receptor activity vs. 0.10% DMSO, rPPAR-δ",rPPARδ [2]; 137 nM,25%
same,"% Inhibition of agonist-stimulated receptor activity vs. 0.10% DMSO, rPPAR-δ",rPPARδ [2]; 412 nM,1.5%
same,"% Inhibition of agonist-stimulated receptor activity vs. 0.10% DMSO, rPPAR-δ","rPPARδ [2]; 1,235 nM",−1.8%
same,"% Inhibition of agonist-stimulated receptor activity vs. 0.10% DMSO, rPPAR-δ","rPPARδ [2]; 3,704 nM",6.8%
same,"% Inhibition of agonist-stimulated receptor activity vs. 0.10% DMSO, rPPAR-δ","rPPARδ [2]; 11,111 nM",1.2%
same,"% Inhibition of agonist-stimulated receptor activity vs. 0.10% DMSO, rPPAR-δ","rPPARδ [2]; 33,333 nM",26%
same,"% Inhibition of agonist-stimulated receptor activity vs. 0.10% DMSO, rPPAR-δ","rPPARδ [2]; 100,000 nM",58%
same,"% Inhibition of agonist-stimulated receptor activity vs. 0.10% DMSO, rPPAR-δ","rPPARδ [2]; 300,000 nM",100%
same,"inhibition of rat PPARs (in words), rPPARδ",rPPARδ [2]; at higher test concentrations,apparent inhibition
